Results reported in US7326768B2, “Goodpasture antigen-binding protein isoforms and protein misfolded-mediated disorders” (priority 2003, dated 2008).
“Also recorded” adds a separate entry of the source.

How the values were obtained:
[1] = tested on: α3(IV)NC1-expressing cells (HEK293); assay: α3(IV)NC1 conformer production in cultured cells (Western blot of culture media); format: cell-based, human; conditions: for α3(IV)NC1 conformer production in cultured cells: synthetic peptides 100-200 μM, organic compounds 5-50 μM, 24-48 h
NZW mice = assay: Degenerative glomerulopathy in NZW mice (histochemical studies of kidney); format: in vivo
C57BL/6 mice = assay: DAB-Am-4 treatment of control mice (genetic background control); format: in vivo; conditions: C57BL/6 control mice
Method: Animal studies. NZW, male or female, 4-6 month-old were injected intraperitoneally either with 1 μg/g of body weight of DAB-Am-4 and/or with 20 μg/g of body weight of the Q2L or Q2D peptide. These products were administered in a volume of 500 μl of steril saline solution 3 times per week, at alternate days, during 12 consecutive weeks. Age-matched uninjected mice were used as controls. At the end of the experiment, mice were sacrificed and kidneys were fixed in 10% paraformaldehide and processed for pathological studies. Similar DAB-Am-4 treatment studies were performed on C57BL/6 animals for genetic background control.

recombinant human GPBP = target: T1, recombinant human GPBP (Homo sapiens, UniProt Q9Y5P4); assay: In vitro phosphorylation: GPBP kinase activity / autophosphorylation; conditions: for effect on GPBP autophosphorylation at decreasing concentrations: decreasing concentrations up to 10 μM; for GPBP kinase activity in vitro (autophosphorylation): modulators at 200 μM, 10 min autophosphorylation reaction
T1 sequence (Q9Y5P4 1-624): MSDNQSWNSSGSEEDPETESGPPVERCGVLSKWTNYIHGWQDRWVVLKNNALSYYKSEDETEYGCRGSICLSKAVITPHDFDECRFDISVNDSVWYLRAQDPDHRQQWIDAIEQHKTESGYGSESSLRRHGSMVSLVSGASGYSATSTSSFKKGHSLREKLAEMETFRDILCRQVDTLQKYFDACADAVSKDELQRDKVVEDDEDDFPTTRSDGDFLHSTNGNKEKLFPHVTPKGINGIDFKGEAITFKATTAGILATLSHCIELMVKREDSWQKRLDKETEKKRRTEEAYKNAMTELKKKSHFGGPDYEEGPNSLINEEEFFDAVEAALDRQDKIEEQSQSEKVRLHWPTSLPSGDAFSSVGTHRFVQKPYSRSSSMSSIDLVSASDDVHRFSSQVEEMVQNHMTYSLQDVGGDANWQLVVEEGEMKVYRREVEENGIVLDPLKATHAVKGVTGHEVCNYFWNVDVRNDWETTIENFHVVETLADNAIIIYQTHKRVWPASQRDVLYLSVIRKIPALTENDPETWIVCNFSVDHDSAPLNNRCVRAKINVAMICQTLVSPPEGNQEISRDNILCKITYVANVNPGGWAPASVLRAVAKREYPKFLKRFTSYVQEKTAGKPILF

GPBP-PrP^C complex = GPBP-PrP^C complex (Homo sapiens, UniProt Q9Y5P4); format: binding, bovine PrP^C
rat liver lysosomes = format: in vivo; conditions: lysosomes from liver of leupeptin-treated vs untreated rats
Method: FIG. 6. Identification of 91-kDa GPBP isoform in rat liver lysosomes and evidence for processing to 44-47-kDa isoforms. In A, similar amounts (˜50 μg) of lysosomal fractions from liver of untreated (C) or leupeptin-treated (L) rats were analyzed by Western blot using Mab6 antibodies. In B, lysosomal fractions as in A were further fractioned and whole (W), soluble (S) or non-soluble (M) fractions were similarly analyzed.
Subcellular fractioning and related studies. Rat liver subcellular fractionation was essentially performed as indicated in Aniento, F., Roche, E., Cuervo, A. M., Knecht, E. (1993). J. Biol. Chem. 268, 10463-10470. For some purposes lysosomal fractions (freshly prepared entire lysosomes) were dispersed in pure water and subjected to ten consecutive cycles of freezing and thawing to alter lysosomal membrane integrity (broken lysosomes). For other purposes, lysosomal fractions were similarly disrupted in the presence of protease inhibitors (PMSF 2 mM, leupeptin 0.2 mM and EDTA 2 mM) and subsequently centrifuged 130,000×g for 10 min at room temp to separate the soluble lysosomal fraction (also called here lysosomal extract) from the non-soluble fraction which, after rinse with 0.3 M saccharose in 10 mM MOPS pH 7.2, was used as the lysosomal membrane fraction.

GPBP mRNA = assay: Silencing of GPBP expression in 293 cells (Western blot); format: cell-based, human; conditions: 293 cells transfected with silencer plasmid
Method: FIG. 4. Cellular 91- and 120-kDa GPBP-related polypeptides are translation products of GPBP mRNA. Similar amounts (˜50 μg) of lysates from non-transfected 293 cells (1) or from 293 cells transfected with a plasmid encoding for SiGFP (2), SiGPBP (3), SiGPBP/Δ26-1 (4) SiGPBP/Δ26-2 (5), SiGPBP/Δ26-3 (6), SiGPBP/Δ26-4 (7) were analyzed by Western blot using the indicated antibodies.
SimRNA production. Silencers were generated using pSilencer 2.1-U6 hygro plasmid (Ambion) following manufacturers recommendations. The oligonucleotide pairs used were:
Recombinant protein expression in cultured cells. The pcDNA3-based contructs containing the cDNA encoding the different human proteins of interest were used to transfect human 293 cells using standard calcium phosphate procedures in ProFection Mammalian Transfection System (Promega). 24-48 h after transfection cell lysates were used for Western blot, precipitation or immunoprecipitation studies. Cells expressing GPBP or derived deletion mutants were collected on ice with 50 mM Tris HCl pH 7.4, 0.05% Triton X-100, 1 mM PMSF and 5 μg/ml leupeptin, disrupted by vortex and insoluble material discarded by centrifugation at 14.000 rpm in Eppendorf at 4° C. for 10 min and supernatant used for Western blot analysis.

GPBP = target: T2, GPBP (Homo sapiens, UniProt Q9Y5P4); assay: Auto-phosphorylation of GPBP deletion mutant at pH 5; format: biochemical
T2 sequence (Q9Y5P4 1-299): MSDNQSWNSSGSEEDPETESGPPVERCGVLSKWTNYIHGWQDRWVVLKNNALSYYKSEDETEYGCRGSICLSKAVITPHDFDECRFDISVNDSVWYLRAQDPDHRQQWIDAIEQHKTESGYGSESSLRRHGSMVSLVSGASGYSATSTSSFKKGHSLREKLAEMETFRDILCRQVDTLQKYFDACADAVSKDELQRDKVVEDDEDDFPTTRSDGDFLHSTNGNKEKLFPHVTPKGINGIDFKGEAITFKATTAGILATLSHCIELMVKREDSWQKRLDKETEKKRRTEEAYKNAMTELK

## NCCCN(CCCN)CCCCN(CCCN)CCCN [DAB-Am-4, polypropylenimine tetraamine dendrimer, reference compound]
[1]
  α3(IV)NC1 conformer production in cultured cells: potent activator
[1]; listed as DAB-Am4
  α3(IV)NC1 conformer production in cultured cells: efficient increase in conformer production
NZW mice; 4-6 month-old NZW, 1 μg/g i.p. 3 times per week, 12 weeks
  progression of the glomerulopathy: acceleration of the degenerative process, resulting in premature glomerulosclerosis at 7-9 month of age
NZW mice; NZW, DAB-Am-4 treatment
  morphological pattern of disease progression: progression through Stages 3b and 4b
C57BL/6 mice
  histological changes: not observed histological changes of relevance
Recombinant human GPBP
  effect on GPBP autophosphorylation at decreasing concentrations: activation
  GPBP kinase activity in vitro (autophosphorylation): potent activator; also recorded: caused induction

## CN([C@@H](Cc1ccc(OS(=O)(=O)c2cccc3cnccc23)cc1)C(=O)N1CCN(c2ccccc2)CC1)S(=O)(=O)c1cccc2cnccc12 [KN62, 1-[N,O-bis-(5-Isoquinolinesulfonyl)-N-methyl-L-tyrosyl]-4-phenylpiperazine, reference compound]
[1]
  α3(IV)NC1 conformer production in cultured cells: reduced cell conformer production
Recombinant human GPBP
  GPBP kinase activity in vitro (autophosphorylation): inhibited GPBP kinase activity in vitro to a larger extent than KN93

## Cl.N [NH4Cl]
[1]; 20 mM NH4Cl
  α3(IV)NC1 conformer production: reduced conformer production

## CC[C@@H](C)[C@@H](NC(=O)[C@@H](CS)NC(=O)[C@@H](Cc1c[nH]cn1)NC(=O)[C@@H](CO)NC(=O)[C@@H](CC(C)C)NC(=O)[C@H](NC(=O)[C@@H](C)NC(=O)[C@@H](CC(C)C)NC(C)=O)[C@H](C)O)C(=O)N[C@H](CCC(=O)O)C(=O)N[C@H](CC(C)C)C(=O)N[C@H](CCSC)C(=O)N[C@@H](C(=O)N[C@H](CCCCN)C(=O)N[C@H](CCCNC(=N)N)C(N)=O)C(C)C [Q2D]
GPBP-PrP^C complex
  GPBP-PrP^C complex formation: fully inhibited
Recombinant human GPBP
  effect on GPBP autophosphorylation at decreasing concentrations: inhibition
  GPBP kinase activity in vitro (autophosphorylation): more efficient inhibiting
Recombinant human GPBP; listed as D-amino acid version of Q2
  GPBP kinase activity in vitro (autophosphorylation): more potent inhibitory activity

## CC[C@H](C)[C@H](NC(=O)[C@H](CS)NC(=O)[C@H](Cc1c[nH]cn1)NC(=O)[C@H](CO)NC(=O)[C@H](CC(C)C)NC(=O)[C@@H](NC(=O)[C@H](C)NC(=O)[C@H](CC(C)C)NC(C)=O)[C@@H](C)O)C(=O)N[C@@H](CCC(=O)O)C(=O)N[C@@H](CC(C)C)C(=O)N[C@@H](CCSC)C(=O)N[C@H](C(=O)N[C@@H](CCCCN)C(=O)N[C@@H](CCCNC(=N)N)C(N)=O)C(C)C [Q2L]
GPBP-PrP^C complex
  GPBP-PrP^C complex formation: efficiently inhibited

## CC(=O)N[C@@H](CC(C)C)C(=O)N[C@@H](CC(C)C)C(=O)N[C@H](C=O)CCCNC(=N)N [leupeptin]
[1]
  presence of α3(IV)NC1 proteolytic products: inhibited the presence of proteolytic products
Rat liver lysosomes
  lysosomal GPBP immunoreactive polypeptides: 44-47-kDa polypeptides significantly diminished

## CN[C@@H]1C[C@H]2O[C@@](C)([C@@H]1OC)n1c3ccccc3c3c4c(c5c6ccccc6n2c5c31)C(=O)NC4 [staurosporine, reference compound]
Recombinant human GPBP
  GPBP kinase activity in vitro (autophosphorylation): efficiently impaired

## Ac-EKTAGKPILF-OH [Q4]
[1]
  α3(IV)NC1 conformer production in cultured cells: reduction in conformer production; also recorded: more limited inhibitory effect
Recombinant human GPBP
  GPBP kinase activity in vitro (autophosphorylation): inhibited GPBP autophosphorylation in a more limited manner; also recorded: poor inhibitor

## Ac-VLMASLETLCRIHKI-NH2 [Q2Lr, reference compound]
GPBP-PrP^C complex
  GPBP-PrP^C complex formation: no effect on complex formation

## SiGPBP/Δ26-1: silencer of GPBP and/or GPBPΔ26 expression, SEQ ID NO:47 (AAACUACAUUCAUGGGUGGCA; listed as RNA, chemistry not given here)
GPBP mRNA
  GPBP expression (endogenous 91- and 120-kDa GPBP): diminish GPBP and/or GPBPΔ26 expression

## SiGPBP/Δ26-2: silencer of GPBP and/or GPBPΔ26 expression, SEQ ID NO:48 (guide AAACAGAGUAUGGCUGCAGAG; listed as RNA, chemistry not given here)
GPBP mRNA
  GPBP expression (endogenous 91- and 120-kDa GPBP): silenced endogenous GPBP more efficiently than SiGPBP/Δ26-4
GPBP mRNA; listed as siGPBPΔ26-2
  GPBP expression (endogenous 91- and 120-kDa GPBP): diminish GPBP and/or GPBPΔ26 expression

## SiGPBP/Δ26-3: silencer of GPBP and/or GPBPΔ26 expression, SEQ ID NO:49 (guide AAGUACUUUGAUGCCUGUGCU; listed as RNA, chemistry not given here)
GPBP mRNA
  GPBP expression (endogenous 91- and 120-kDa GPBP): diminish GPBP and/or GPBPΔ26 expression

## SiGPBP/Δ26-4: silencer of GPBP and/or GPBPΔ26 expression, SEQ ID NO:50 (guide AAAGGCGUCACAGGACAUGAA; listed as RNA, chemistry not given here)
GPBP mRNA
  GPBP expression (endogenous 91- and 120-kDa GPBP): diminish GPBP and/or GPBPΔ26 expression

## SiGPBP: silencer of GPBP expression, SEQ ID NO:51 (AAGCCCUAUAGUCGCUCUUCC; listed as RNA, chemistry not given here)
GPBP mRNA
  GPBP expression (endogenous 91- and 120-kDa GPBP): diminish GPBP and/or GPBPΔ26 expression

B1: residues 1-299 of GPBP: C-terminal deletion mutant of GPBP with approximately 44-kDa molecular mass, SEQ ID NO:38 (protein)
chain: MSDNQSWNSSGSEEDPETESGPPVERCGVLSKWTNYIHGWQDRWVVLKNNALSYYKSEDETEYGCRGSICLSKAVITPHDFDECRFDISVNDSVWYLRAQDPDHRQQWIDAIEQHKTESGYGSESSLRRHGSMVSLVSGASGYSATSTSSFKKGHSLREKLAEMETFRDILCRQVDTLQKYFDACADAVSKDELQRDKVVEDDEDDFPTTRSDGDFLHSTNGNKEKLFPHVTPKGINGIDFKGEAITFKATTAGILATLSHCIELMVKREDSWQKRLDKETEKKRRTEEAYKNAMTELK
modifications: Derived sequence
GPBP
  auto-phosphorylation activity: greater auto-phosphorylation activity at pH 5 than full sized GPBP
